Reference: patent US20140287074A1, “Extracts of deschampsia antartica with antineoplastic activity” (Uxmal S.A., Chile, priority 2013, published 2014)

Test system: LoVo colorectal cancer cells
Experiment: In vitro growth (proliferation, viability) of LoVo colon cancer cells
Type: cell-based, human
Protocol: FIG. 4. Effects of fractions of Deschampsia antarctica in concentrations of 100 μg/ml on in vitro growth of colon cancer cells (HT29 and LoVo), hepatic cancer cells (Hep3B) and control cells (wi38). GCB1, GCB2 and GCB3 correspond to extraction of three different collections of Deschampsia antarctica plants for the Antarctic. The extracts were prepared with water, then dried and dissolved in methanol. Control contains no extract added and the methanol control is a control containing 5% methanol as was used to dissolve the dried aqueous extract.
FIG. 5. Effects of ethyl acetate (a and B) and methanol (c and d) extracts at to concentration of 75 ug/ml on LoVo colorectal cancer cells (a and c) and we38 human fetal fibroblast cells (b and d).
Its effect on WI38 (normal lung fibroblasts) was tested at the maximum concentration to determine specificity and toxicity.
The same extract was tested in WI 38 cells (normal lung fibroblasts).

**Q.** For `O=c1cc(-c2ccc(O)c(O)c2)oc2c([C@@H]3OC(CO)[C@@H](O)[C@H](O)C3O[C@H]3OC[C@H](O)[C@@H](O)C3O)c(O)cc(O)c12` (single isomer, unassigned; peak 2) [peak 2, orientin 2″-beta-arabinopyranoside], which “concentration at which inhibitory effect on cellular proliferation was observed” value (corresponds to 1.7 mM) is on record?
**A.** 1000 µg/mL

**Q.** And the “concentration at which inhibitory effect on cellular proliferation was observed” value (tested at 0.017, 0.17 and 1.7 mM, FIG. 6)?
**A.** 1.7 mM
